These results are taken from ChEMBL document CHEMBL4673228, “Futunamine, a Pyrrole-Imidazole Alkaloid from the Sponge Stylissa aff. carteri Collected off the Futuna Islands” (J Nat Prod, 2020).

Data set [1] has as its system SH-SY5Y. Briefly: Neuroprotective activity against TBHP-induced cytotoxicity in human SH-SY5Y cells assessed as increase in cell viability at 0.001 uM after 6 hrs by MTT assay. In kind it is functional, cell-based. (In general: Tetrazolium dyes change colour on reduction, which living cells bring about.)
Data set [2] has as its system BV-2. Briefly: Cytotoxicity against mouse BV-2 cells assessed as reduction in cell viability at 0.001 to 10 uM after 24 hrs by MTT assay. It counts as cell-based. The following applies: bv-2, 24 h, dose 0.001-10 µM.
In data set [3] the test system is SH-SY5Y. Description: Cytotoxicity against human SH-SY5Y cells assessed as reduction in cell viability at 0.001 to 10 uM after 24 hrs by MTT assay. It counts as cell-based. Particulars: dose 0.001-10 µM.
Data set [4] relates to SH-SY5Y. Description: Neuroprotective activity against TBHP-induced cytotoxicity in human SH-SY5Y cells assessed as increase in cell viability at 10 uM after 6 hrs by MTT assay. It counts as functional, cell-based.
The test system of data set [5] is SH-SY5Y. Description: Neuroprotective activity against TBHP-induced human SH-SY5Y cells assessed as decrease in ROS production at 0.001 to 10 uM after 6 hrs by DCFH-DA dye based spectrophotometric assay relative to control. It counts as functional. The arrangement: scale not given: the % may be the effect or the level left. Particulars: dose 0.001-10 µM.
The subject of data set [6] is BV-2. Description: Inhibition of LPS-induced NO production in mouse BV-2 cells at 0.1 to 1 uM preincubated for 1 hrs followed by LPS-stimulation and measured after 24 hrs by Griess reagent based spectrophotometric assay. It counts as functional, cell-based. Particulars: dose 0.1-1 µM. On the technique in general: Griess reagent forms a coloured azo dye with nitrite.

The test system of data set [7] is SH-SY5Y. Briefly: Neuroprotective activity against TBHP-induced human SH-SY5Y cells assessed as decrease in ROS production at 1 uM after 6 hrs by DCFH-DA dye based spectrophotometric assay relative to control. It counts as functional. The arrangement: scale not given: the % may be the effect or the level left.

The source made the active and inactive calls. The rule behind the calls is not given here.

Consider `Nc1ncc(/C=C/CNC(=O)c2cc(Br)c(Br)[nH]2)[nH]1` [OROIDIN], for which the outcome with SH-SY5Y [1] was Active. The Activity result in the data set on BV-2 [2] and in the data set on SH-SY5Y [3] was “Non-Toxic” in each case.
Regarding `NC1=N[C@]2([C@H](O)N1)[C@@H](Cl)[C@H](CNC(=O)c1cc(Br)c(Br)[nH]1)[C@H]1CN3C(=O)c4[nH]ccc4[C@@H]4N=C(N)N[C@@]43[C@@H]12.O=C(O)C(F)(F)F.O=C(O)C(F)(F)F`, the Activity result in the data set on BV-2 [2] and in the data set on SH-SY5Y [3] was “Non-Toxic” each time.
Consider `Nc1nc([C@H]2[C@H](CNC(=O)c3cc(Br)c(Br)[nH]3)/C(=C\CNC(=O)c3ccc[nH]3)c3cnc(N)n32)c[nH]1`, for which the Activity entry was “Non-Toxic” in the data set with BV-2 [2], “Non-Toxic” in the data set with SH-SY5Y [3] and 35% with SH-SY5Y [5]. Further, the result with SH-SY5Y [4] was Active.
As for `NC1=N[C@]2([C@H](O)N1)[C@@H](Cl)[C@H](CNC(=O)c1cc(Br)c(Br)[nH]1)[C@H]1CN3C(=O)c4cccn4[C@@H]4N=C(N)N[C@@]43[C@@H]12.O=C(O)C(F)(F)F.O=C(O)C(F)(F)F`, the Activity result in the data set with BV-2 [2] is “Non-Toxic”; in the data set with SH-SY5Y [3], “Non-Toxic”; with SH-SY5Y [5], 35%. Besides, the inhibition entry with BV-2 [6] was “Active”.
On to `C[C@]1(COC(=O)c2cc(Br)c[nH]2)C[C@@H](C(=O)O)N=CN1` [MANZACIDIN A], for which the outcome with SH-SY5Y [1] was Active. The Activity entry in the data set on BV-2 [2] was “Non-Toxic”; with SH-SY5Y [3], “Non-Toxic”; in the data set on SH-SY5Y [7] it was >25%.
As for `Nc1nc(/C=C/CNC(=O)c2cc(Br)c[nH]2)c[nH]1`, the result in the data set on SH-SY5Y [1] was Active. Moreover, the figures for the Activity entry with BV-2 [2], in the data set with SH-SY5Y [3] and with SH-SY5Y [7] were “Non-Toxic”, “Non-Toxic” and >25%, respectively. For the same compound, the inhibition entry in the data set with BV-2 [6] is “Active”.
